The values below are quoted from earlier work in the PKSmart pharmacokinetics tables (Seal et al. 2025).

The nature of data set [1]: Lombardo et al. 2013, J Clin Pharmacol 53:178, doi 10.1177/0091270012440282. As to conditions: for Vd / clearance: in vivo, iv; for fraction unbound: plasma.
The nature of data set [2]: Lombardo, Berellini, Obach 2018, Drug Metab Dispos 46:1466, doi 10.1124/dmd.118.082966. The note with it: human; for MRT / Vd / clearance / half-life: in vivo, iv; for fraction unbound: plasma.

The structures appear in SMILES notation.

`OC(CNCC(O)C1CCc2cc(F)ccc2O1)C1CCc2cc(F)ccc2O1` (centres undefined): in data set [1] (rat), the Vd was 6.2 L/kg, the clearance was 49 mL/min/kg and the unbound share (fraction unbound) was 0.015.

On to `COc1ccccc1Oc1c(NS(=O)(=O)c2ccc(C)cn2)nc(-c2ccnc(-c3nn[nH]n3)c2)nc1OCCO`, for which the Vd is 0.11 L/kg in data set [1] (dog), 0.36 L/kg in data set [1] (monkey) and 0.32 L/kg in data set [1] (rat). Besides, the clearance is 2.89 mL/min/kg in data set [1] (dog), 19 mL/min/kg in data set [1] (monkey) and 11.7 mL/min/kg in data set [1] (rat).

Consider `CCCc1nn(C)c2c(=O)nc(-c3cc(S(=O)(=O)N4CCN(C)CC4)ccc3OCC)[nH]c12`, for which, in data set [1] (dog), the Vd is 5.2 L/kg, the clearance was 12 mL/min/kg and the fraction unbound was 0.14. In data set [1] (rat), the Vd is 1.1 L/kg and the clearance is 48 mL/min/kg.

`CN[C@@H]1C[C@H]2O[C@@](C)([C@@H]1OC)n1c3ccccc3c3c4c(c5c6ccccc6n2c5c31)C(=O)N[C@@H]4O`: in data set [1] (dog), the Vd was 6.09 L/kg, the clearance was 10.2 mL/min/kg and the fraction unbound was 0.0074. Further, in data set [1] (rat), the Vd is 16.7 L/kg and the clearance was 65 mL/min/kg.

As to `O=C(OC1CC2CC3C[C@@H](C1)N2CC3=O)c1c[nH]c2ccccc12` (some centres undefined), in data set [1] (dog), the clearance was 27 mL/min/kg and the fraction unbound is 0.5. For the same compound, in data set [1] (monkey), the clearance was 77 mL/min/kg and the fraction unbound is 0.5. Also, in data set [1] (rat), the Vd was 26 L/kg and the clearance is 72 mL/min/kg.

As to `COC(=O)Nc1nc2ccc(C(=O)c3ccccc3)cc2[nH]1`, in data set [1] (rat), the Vd was 2.6 L/kg and the clearance was 9.8 mL/min/kg.

On to `CC(NC(=O)N(CCCl)N=O)C(N)=O` (centres undefined), for which the clearance in data set [1] (dog) is 17.6 mL/min/kg.

With `COc1ccc2nc([S+](O)Cc3ncc(C)c(OC)c3C)[n-]c2c1` (centres undefined), in data set [1] (rat), the Vd is 0.44 L/kg, the clearance is 53 mL/min/kg and the fraction unbound is 0.19.

For `COc1ccc(-c2nc3ccc(C4=NNC(=O)CC4C)cc3[nH]2)cc1` (centres undefined), the Vd in data set [1] (rat) is 3.5 L/kg.

Take `Cc1nnc(C(C)C)n1C1C[C@H]2CC[C@@H](C1)N2CC[C@H](NC(=O)C1CCC(F)(F)CC1)c1ccccc1` (some centres undefined): in data set [1] (dog), the Vd was 2.32 L/kg, the clearance is 21 mL/min/kg and the fraction unbound was 0.36. In addition, in data set [1] (rat), the Vd is 2.53 L/kg, the clearance is 74 mL/min/kg and the fraction unbound was 0.49.

Consider `C[C@@H](O)C1C(=O)N2C(C(=O)O)=C(S[C@H]3CC(C(=O)N4CC[C@H](NC(=O)CN=C(N)N)C4)N(C)C3)[C@H](C)[C@H]12` (some centres undefined), for which the results for the Vd in data set [1] (dog), in data set [1] (monkey) and in data set [1] (rat) were 0.25 L/kg, 0.18 L/kg and 0.2 L/kg, respectively. Also, the clearance in data set [1] (dog) is 3.96 mL/min/kg; in data set [1] (monkey), 1.7 mL/min/kg; in data set [1] (rat), 15.7 mL/min/kg. The fraction unbound in data set [1] (dog) is 0.928; in data set [1] (monkey), 0.85; in data set [1] (rat), 0.95.

Take `CCCCC[C@H](O)CC[C@@H]1[C@H]2Cc3cccc(OCC(=O)O)c3C[C@H]2C[C@H]1O`: in data set [1] (dog), the Vd is 0.11 L/kg and the clearance was 35.8 mL/min/kg.

Consider `C#CCN(C)[C@H](C)Cc1ccccc1`, for which, in data set [1] (dog), the Vd is 9.46 L/kg and the clearance was 160 mL/min/kg. The unbound share (fraction unbound) in data set [1] (rat) is 0.31.

Consider `CC(=O)N[C@H]1[C@H]([C@H](O)[C@H](O)CO)OC(C(=O)O)=C[C@@H]1N=C(N)N`, for which, in data set [1] (rat), the Vd is 0.8 L/kg and the clearance was 31.7 mL/min/kg.

`C[C@@H](O)C1C(=O)N2C(C(=O)O)=C(SCC/N=C/N)C[C@H]12` (some centres undefined): the clearance was 4.3 mL/min/kg in data set [1] (dog), 5.7 mL/min/kg in data set [1] (monkey) and 14.5 mL/min/kg in data set [1] (rat). For the same compound, the fraction unbound in data set [1] (dog) is 1; in data set [1] (monkey) it was 0.975; in data set [1] (rat), 1.

As for `C[C@@H](O)C1C(=O)N2C(C(=O)O)=C(S[C@@H]3CN[C@H](CNS(N)(=O)=O)C3)[C@H](C)[C@H]12` (some centres undefined), the results for the clearance in data set [1] (dog), in data set [1] (monkey) and in data set [1] (rat) were 4.7 mL/min/kg, 7.7 mL/min/kg and 35.7 mL/min/kg, respectively. For the same compound, the free fraction (fraction unbound) is 0.9 in data set [1] (dog), 0.94 in data set [1] (monkey) and 0.65 in data set [1] (rat).

In the case of `CC(C)(C)[C@]1(O)C[C@@H]2OC(=O)C[C@@]23C(=O)O[C@@H]2OC(=O)C(O)[C@]213` (some centres undefined), in data set [1] (rat), the Vd was 10 L/kg and the clearance is 140 mL/min/kg.

Turning to `CC(=O)Nc1ccc(O)cc1`, the fraction unbound in data set [1] (rat) was 0.27.

On to `OC(CCN1CCCCC1)(c1ccccc1)C1CC2C=CC1C2` (centres undefined), for which, in data set [1] (dog), the Vd is 9.7 L/kg, the clearance is 27 mL/min/kg and the fraction unbound is 0.19. Besides, the fraction unbound in data set [1] (rat) is 0.31.

With `Cn1c(=O)c2[nH]cnc2n(C)c1=O`, the Vd in data set [1] (dog) is 0.68 L/kg; in data set [1] (monkey) it was 0.69 L/kg. The clearance was 1.8 mL/min/kg in data set [1] (dog), 3.8 mL/min/kg in data set [1] (monkey) and 2.25 mL/min/kg in data set [1] (rat).

With `[H]/N=C(\N)c1ccc(OCCCCCOc2ccc(/C(N)=N/[H])cc2)cc1`, in data set [1] (dog), the Vd was 6.6 L/kg, the clearance was 60.6 mL/min/kg and the fraction unbound is 0.266. Also, in data set [1] (rat), the Vd was 10.1 L/kg, the clearance is 112 mL/min/kg and the unbound share (fraction unbound) was 0.4.

In the case of `CCC[C@@H]1CC(C(=O)N[C@@H]([C@H]2O[C@H](SC)[C@H](O)[C@@H](O)[C@H]2O)[C@H](C)Cl)N(C)C1` (some centres undefined), the fraction unbound in data set [1] (dog) is 0.035; in data set [1] (rat), 0.325.

`NC(N)=Nc1nc(CSCCC(N)=NS(N)(=O)=O)cs1`: in data set [1] (dog), the distribution volume (Vd) is 0.79 L/kg, the clearance is 8.6 mL/min/kg and the fraction unbound was 0.72. Besides, in data set [1] (monkey), the Vd is 2.1 L/kg, the clearance was 15 mL/min/kg and the fraction unbound is 0.13. In data set [1] (rat), the Vd is 0.8 L/kg, the clearance is 22 mL/min/kg and the fraction unbound is 0.47.

As to `CCC1=NC(=O)C2CSSCC/C=C\[C@H](CC(=O)NC(C(C)C)C(=O)N2)OC(=O)C(C(C)C)NC1=O` (some centres undefined), in data set [1] (monkey), the Vd was 4.95 L/kg and the clearance was 27.9 mL/min/kg. In data set [1] (rat), the Vd was 63.8 L/kg and the clearance was 625 mL/min/kg.

For the compound `CN1C2CCC[C@@H]1CC(NC(=O)c1nn(C)c3ccccc13)C2` (some centres undefined), in data set [1] (rat), the Vd was 16.7 L/kg and the clearance is 824 mL/min/kg.

Regarding `O=C(c1ccccc1)c1ccc2n1CCC2C(=O)O` (centres undefined), in data set [1] (dog), the Vd is 0.33 L/kg and the clearance is 1.25 mL/min/kg. For the same compound, the clearance in data set [1] (rat) was 3.6 mL/min/kg.

For the compound `CN(c1nc2ccccc2s1)C1CCN(CC(O)COc2ccc(F)cc2)CC1` (centres undefined), in data set [1] (rat), the Vd was 5.8 L/kg, the clearance was 35.9 mL/min/kg and the fraction unbound was 0.016.

`CN1c2ccccc2[C@@H](NCCCCCCC(=O)O)c2ccc(Cl)cc2S1(=O)=O`: in data set [2], the MRT was 1.9 h, the Vd was 0.3 L/kg, the clearance is 2.8 mL/min/kg and the half-life was 1.4 h.

For `CCCC(C)(COC(N)=O)COC(N)=O`, in data set [2], the MRT is 19 h, the Vd was 0.7 L/kg, the clearance is 0.6 mL/min/kg and the half-life is 14 h. Besides, in data set [2], the fraction unbound is 1.

Take `CC(NCc1ccc(OCc2cccc(F)c2)cc1)C(N)=O` (centres undefined): in data set [2], the MRT is 31.2 h, the Vd was 2.19 L/kg, the clearance is 1.17 mL/min/kg and the half-life is 21.7 h.

With `CN1CCN2c3ccccc3Cc3ccccc3[C@H]2C1`, in data set [2], the MRT is 10.5 h, the Vd is 13.8 L/kg, the clearance was 21.9 mL/min/kg and the half-life was 9.6 h. In addition, the free fraction (fraction unbound) in data set [2] was 0.05.

In the case of `CCOC(=O)C(CCc1ccccc1)NC(C)C(=O)N1C(C(=O)O)C[C@H]2CCCC[C@H]21` (some centres undefined), in data set [2], the fraction unbound is 0.17.

As to `CSCC(NC(=O)COc1cccc2cnccc12)C(=O)NC(Cc1ccccc1)C(O)C(=O)N1CSCC1C(=O)NC(C)(C)C` (centres undefined), in data set [2], the MRT is 0.17 h, the volume of distribution (Vd) is 0.11 L/kg, the clearance is 10.5 mL/min/kg and the half-life is 0.44 h.

For `CCNCC(O)c1cccc(O)c1` (centres undefined), in data set [2], the MRT was 2.5 h, the Vd was 2.1 L/kg, the clearance is 14 mL/min/kg and the half-life was 2.2 h.

For `O=C(O)C1O[C@@H](Oc2cc3oc(-c4ccc(O)cc4)cc(=O)c3c(O)c2O)[C@H](O)[C@@H](O)[C@@H]1O` (some centres undefined), in data set [2], the MRT was 0.31 h, the Vd was 0.88 L/kg, the clearance is 46.6 mL/min/kg and the half-life was 1.18 h. Further, in data set [2], the fraction unbound was 0.1.

As a reminder, the Vd is the apparent volume that relates the amount in the body to the concentration in plasma or blood. The clearance is a measure of how efficiently the substance is removed, as volume per time. For orientation: fraction unbound means free concentration divided by total concentration. By MRT is commonly meant a mean duration of stay, worked out from the concentration-time curve. By half-life is commonly meant the time needed for the level to fall by half in the phase considered.
